Laboratory results as given in patent US8598383B2, “Pharmaceutical composition for treating or preventing degenerative and inflammatory diseases” (Neurotech Pharmaceuticals Co., Ltd., priority 2006, dated 2013).

What was measured:
[1] = test system: APP/PS1 transgenic mice behavior; test: Elevated plus maze test in APP/PS1 mice; format: in vivo, mouse; conditions: 25 mg/kg/day for 7 months, vs chow only
Experimental: APP/PS1 transgenic mice were fed chow alone or containing 25 mg/kg/day of compound 2, for 7 months (3.5˜10.5 months). After administration of 7 months, Elevated plus maze test was performed to evaluate the behavior improvement. Elevated plus maze has two open arms (30 cm×6 cm×0.5 cm) and two closed arms (30 cm×6 cm×15 cm), and also has 6 cm×6 cm of center platform. In Elevated plus maze test, mouse was carefully laid in the center with the head of the mouse toward open arm. The time that the mouse spent in the open arm was recorded for 5 minutes (mean±SEM, n=3-5). *, Significant difference from control (APP/PS1 mouse fed with general chow only), p<0.05 using one-way ANOVA according to Student-Neuman-Keuls' test.

NSAID-induced gastritis = test: Gastritis caused by NSAID (indomethacine); format: in vivo, rat; conditions: indomethacine 6 hour and 12 hour models; given 1 hour before NSAID
Experimental: FIG. 10 is results showing protecting effect of compound 2 on gastritis induced by NSAID. 250 g of rat was fasted for 24 hours, and indomethacin was orally administered to cause gastrointestinal bleeding (A and C). Compound 2 was administered 1 hour before administration of NSAID (B and D), and stomach was taken out 6 hours (A and B) or 12 hours (C and D) after gastrointestinal bleeding.
Effect of the 2-hydroxybenzoic acid derivative on NSAID-induced gastritis was evaluated.

Structure (SMILES): O=C(O)c1cc(NCCc2ccc(C(F)(F)F)cc2)ccc1O [compound 2, 2-hydroxy-5-[2-(4-trifluoromethyl-phenyl)-ethylamino]-benzoic acid]
- time spent in the open arm [1]: decreased the time for mouse to stay in the open arm
- protecting effect on stomach (NSAID-induced gastritis): excellent protecting effect on stomach
